Assay results reported in patent US4755527A, “Aryl substituted aminomethyl benzene derivatives” (priority 1985, dated 1988).
Where two headings read alike, the source gives them in different places.

Tests used:
[1] = system: cardiac cells; settings: cited from earlier work
[2] = system: patients; settings: cited from earlier work
[3] = system: ventricular arrhythmias induced by two-stage ligation of the left anterior descending coronary artery (Harris dog); assay: Antiarrhythmic activity by coronary ligation in the Harris dog model (i.v. infusion); format: in vivo, dog (adult mongrel); settings: Canis lupus familiaris, read-out: Antiarrhythmic ED in Harris Dog
Description: The following examples describe the pharmacological evaluation of the compounds made in accordance with the present invention. In particular, these examples describe the evaluation of antiarrhythmic activity by coronary ligation in the well known Harris dog model. Ventricular arrhythmias were induced in adult mongrel dogs (10-15 kg) of either sex by two-stage ligation of the left anterior descending coronary artery. […] The test compound in saline was infused intravenously at a cumulative rate of […] to 1.2 mg/kg/min (base) unitl normal sinus rhythm or toxicity occurred. Normal sinus rhythm was defined as 90-100% normal complexes over a 5 min period.

[4] = system: Guinea Pig Ileum; assay: In vitro evaluation of anticholinergic activity in the isolated guinea pig ileum; design: species or system guinea pig (male Hartley); settings: Cavia porcellus, read-out: Anticholinergic Inhibition of Guinea Pig Ileum (% inhibition at 4 mg/L)
Method: The following examples describe the in vitro evaluation of anticholinergic activity in the isolated guinea pig ileum. Fasted, male Hartley guinea pigs (300-400 g) were killed by a blow to the head. […] One end of the ileal strip was impaled onto a platinum wire electrode; and the other end was tied to a stationary glass rod. Basal tension was set at 0.1-0.3 g and peak developed tension in response to field stimulation (100-150 V, 10 msec pulse duration, 0.2 Hz) was measured with a tension transducer.

[5] = system: ventricular arrhythmias induced by ouabain (Ouabain dog); assay: Antiarrhythmic activity in the Ouabain dog model (i.v. infusion); format: in vivo; settings: Canis lupus familiaris, read-out: Antiarrhythmic ED in Ouabain Dog
Method: The following examples describe the pharmacological evaluation of the compounds in accordance with the present invention. In particular, these examples describe the evaluation of antiarrhythmic activity in the Oubain dog model. […] The test compound was infused intravenously in saline at a rate of about 0.3 to about 5 mg/kg/min until normal sinus rhythm or toxicity occurred. Normal sinus rhythm was defined as 90-100% normal complexes over a 5 minute period.

[6] = Harris dog, IV infusion, ED is the effective dose required to sustain normal sinus rhythm
[7] = 4 mg/L, inhibition of field-stimulated contractile tension
[8] = administered to patients for the management of arrhythmias
[9] = Ouabain dog, IV infusion, ED is the effective dose required to sustain normal sinus rhythm

SMILES: C=C[C@H]1C[N@@]2CC[C@H]1C[C@@H]2[C@@H](O)c1ccnc2ccc(OC)cc12 (stereo in doubt) [Quinidine, 6-methoxy-α-(5'-vinyl-2-quinuclidinyl)-4-quindinemethanol]
- anticholinergic activity (in words, background) [1]: indirect anticholinergic actions
- effect on impulse formation, conduction velocity and refractory period of cardiac cells [1]: depress impulse formation, slow conduction velocity, and increase the duration of the refractory period of cardiac cells
- adverse side-effects in patients ([2]; human, in vivo): cardiotoxicity, diarrhea, nausea, vomiting, fever, hypertension and depression of myocardial contractility
- minimal effective dose [3, 6]: 10.1 mg/kg
- inhibition at 4 µg/mL [4, 7]: 62%

SMILES: Oc1c(CN2CCCC2)cc(Nc2ncnc3ccccc23)cc1CN1CCCC1 [Changrolin, 4-[3',5'-bis[N-pyrrolidinylmethyl]-4'-hydroxyanilino]quinazoline, reference compound]
- anticholinergic activity (in words, background) [1]: substantial anticholinergic activity
- adverse side-effects in patients [2, 8]: skin discoloration in some patients
- antiarrhythmic effectiveness (in words, background) ([2]; human, in vivo): effective antiarrhythmic agent
- minimal effective dose [3, 6]: 10.3 mg/kg
- minimal effective dose [5, 9]: 5.5 mg/kg
- inhibition at 4 µg/mL [4, 7]: 43%

SMILES: O=C(Nc1cc(CN2CCCC2)c(O)c(CN2CCCC2)c1)c1ccc(Cl)cc1 [IV, N--(4-chlorobenzoyl)-3,5,-bis(N--pyrrolidinylmethyl)-4-hydroxyaniline]
- minimal effective dose [3, 6]: 7 mg/kg
- minimal effective dose [5, 9]: 1.5 mg/kg
- inhibition at 4 µg/mL [4, 7]: 49%

SMILES: CC(C)N(CCC(C(N)=O)(c1ccccc1)c1ccccn1)C(C)C (stereo not drawn) [Disopyramide, α[2-(diisopropylamino)-ethyl]α-phenol-2-pyridineacetamide, reference compound]
- anticholinergic activity (in words, background) [1]: indirect anticholinergic actions
- effect on impulse formation, conduction velocity and refractory period of cardiac cells [1]: depress impulse formation, slow conduction velocity, and increase the duration of the refractory period of cardiac cells
- adverse side-effects in patients [2, 8]: dryness of the mouth, blurred vision, constipation, and urinary retention, and depression of myocardial contractility
- minimal effective dose ([3]; iv): 6.8 mg/kg
- minimal effective dose ([5]; iv): 4.4 mg/kg
- inhibition at 4 µg/mL [4]: 81%
